# Measurements as given in ChEMBL document CHEMBL4130367, “Click chemistry-based synthesis and anticancer activity evaluation of novel C-14 1,2,3-triazole dehydroabietic acid hybrids” (Eur J Med Chem, 2017).
# Assays:
# [1] = test system: SK-OV-3; assay: Cytotoxicity against human SKOV3 cells assessed as reduction in cell viability after 72 hrs by MTT assay; assay type: functional, cell-based; conditions: SK-OV-3, 72 h
# [2] = test system: PC-3; assay: Cytotoxicity against human PC3 cells assessed as reduction in cell viability after 72 hrs by MTT assay; assay type: functional, cell-based; conditions: PC-3, 72 h
# [3] = test system: MDA-MB-231; assay: Cytotoxicity against human MDA-MB-231 cells assessed as reduction in cell viability after 72 hrs by MTT assay; assay type: functional, cell-based; conditions: MDA-MB-231, 72 h
# [4] = Octanol-water partition coefficient, log P of the compound; assay type: physicochemical
# [5] = test system: MCF7; assay: cells; conditions: Homo sapiens, MCF7, 72 h
# Description: Cytotoxicity against human MCF7 cells assessed as reduction in cell viability after 72 hrs by MTT assay
# [6] = test system: NCI/ADR-RES; assay: Growth inhibition of human MCF7/ADR cells at 2.5 to 5 uM after 72 hrs by MTT assay relative to control; assay type: functional
# [7] = test system: NCI/ADR-RES; assay: Growth inhibition of human MCF7/ADR cells after 72 hrs by MTT assay; assay type: functional, cell-based
Structure (SMILES),IC50 [1] [µM],IC50 [2] [µM],IC50 [3] [µM],logP [4],IC50 [5] [µM],growth inhibition (GI) [6] [%],growth inhibition (GI) [7]
COC(=O)[C@]1(C)CCC[C@]2(C)c3ccc(C(C)C)c(NC(=O)Cn4cc(-c5ccccc5F)nn4)c3CC[C@@H]12,15.2,8.7,10,5.36,19.4,,
COC(=O)[C@]1(C)CCC[C@]2(C)c3ccc(C(C)C)c(NC(=O)Cn4cc(CBr)nn4)c3CC[C@@H]12,> 100,> 100,60,4.47,> 100,,
COC(=O)[C@]1(C)CCC[C@]2(C)c3ccc(C(C)C)c(NC(=O)Cn4cc(-c5cccc([N+](=O)[O-])c5)nn4)c3CC[C@@H]12,> 100,> 100,87.5,5.13,91.1,,
COC(=O)[C@]1(C)CCC[C@]2(C)c3ccc(C(C)C)c(NC(=O)Cn4cc(Cc5ccccc5)nn4)c3CC[C@@H]12,59.4,> 100,31.9,5.72,> 100,,
COC(=O)[C@]1(C)CCC[C@]2(C)c3ccc(C(C)C)c(NC(=O)Cn4cc(-c5ccccc5OC)nn4)c3CC[C@@H]12,1.4,2.3,1.8,5.21,1,,
CC(C)[C@]12O[C@H]1[C@@H]1O[C@@]13[C@@]1(C)CCC4=C(COC4=O)[C@@H]1C[C@@H]1O[C@@]13C2=O [TRIPTONIDE],,0.02,0.03,,0.03,,
O=c1[nH]cc(F)c(=O)[nH]1 [FLUOROURACIL],20.8,13.7,24.5,,5.2,,
COC(=O)[C@]1(C)CCC[C@]2(C)c3ccc(C(C)C)c(NC(=O)Cn4cc(-c5cccnc5)nn4)c3CC[C@@H]12,> 100,30,41.9,4.13,> 100,,
COC(=O)[C@]1(C)CCC[C@]2(C)c3ccc(C(C)C)c(NC(=O)Cn4cc(-c5ccc6ccccc6c5)nn4)c3CC[C@@H]12,45.3,9.1,27,6.38,12.1,,
COC(=O)[C@]1(C)CCC[C@]2(C)c3ccc(C(C)C)c(NC(=O)Cn4cc(CNc5nc(Cl)nc(Cl)n5)nn4)c3CC[C@@H]12,92.1,> 100,> 100,5.12,> 100,,
COC(=O)[C@]1(C)CCC[C@]2(C)c3ccc(C(C)C)c(NC(=O)Cn4cc(-c5cccc(NC(C)=O)c5)nn4)c3CC[C@@H]12,3.9,10.1,5.9,4.39,1.5,,
COC(=O)[C@]1(C)CCC[C@]2(C)c3ccc(C(C)C)c(NC(=O)Cn4cc(-c5ccc(-c6ccccc6)cc5)nn4)c3CC[C@@H]12,16,11.1,8.9,6.99,9.5,,
COC(=O)[C@]1(C)CCC[C@]2(C)c3ccc(C(C)C)c(NC(=O)Cn4cc(-c5cc(OC)cc(OC)c5)nn4)c3CC[C@@H]12,3.3,5.2,1.4,5.24,8.9,,
COC(=O)[C@]1(C)CCC[C@]2(C)c3ccc(C(C)C)c(NC(=O)Cn4cc(-c5cccc(OC)c5)nn4)c3CC[C@@H]12,0.9,1.1,1.4,5.23,0.8,>50,Dose-dependent effect
COC(=O)[C@]1(C)CCC[C@]2(C)c3ccc(C(C)C)c(NC(=O)Cn4cc(C5CC5)nn4)c3CC[C@@H]12,19.4,12.3,16.2,4.11,24.2,,
COC(=O)[C@]1(C)CCC[C@]2(C)c3ccc(C(C)C)c(NC(=O)Cn4cc([Si](C)(C)C)nn4)c3CC[C@@H]12,65.2,94.3,> 100,6.04,> 100,,
COC(=O)[C@]1(C)CCC[C@]2(C)c3ccc(C(C)C)c(NC(=O)Cn4cc(-c5ccncc5)nn4)c3CC[C@@H]12,> 100,> 100,> 100,3.91,> 100,,
COC(=O)[C@]1(C)CCC[C@]2(C)c3ccc(C(C)C)c(NC(=O)Cn4cc(-c5cccc(F)c5)nn4)c3CC[C@@H]12,91.2,> 100,> 100,5.34,68.8,,
CCOC(=O)c1cn(CC(=O)Nc2c(C(C)C)ccc3c2CC[C@H]2[C@](C)(C(=O)OC)CCC[C@]32C)nn1,22.9,15.4,21.3,3.97,16.1,,
COC(=O)[C@]1(C)CCC[C@]2(C)c3ccc(C(C)C)c(NC(=O)Cn4cc(-c5ccc([N+](=O)[O-])cc5)nn4)c3CC[C@@H]12,77.3,> 100,> 100,5.16,> 100,,
COC(=O)c1nnn(CC(=O)Nc2c(C(C)C)ccc3c2CC[C@H]2[C@](C)(C(=O)OC)CCC[C@]32C)c1C(=O)OC,25.3,49,8.2,3.67,15.6,,
COC(=O)[C@]1(C)CCC[C@]2(C)c3ccc(C(C)C)c(NC(=O)Cn4cc(-c5cccs5)nn4)c3CC[C@@H]12,> 100,> 100,57.1,4.98,> 100,,
COC(=O)[C@]1(C)CCC[C@]2(C)c3ccc(C(C)C)c(NC(=O)CCl)c3CC[C@@H]12,69.7,71.2,> 100,,51.6,,
COC(=O)[C@]1(C)CCC[C@]2(C)c3ccc(C(C)C)c(NC(=O)CN=[N+]=[N-])c3CC[C@@H]12,> 100,> 100,60.7,,52.1,,
COC(=O)[C@]1(C)CCC[C@]2(C)c3ccc(C(C)C)c(NC(=O)Cn4cc(-c5ccccn5)nn4)c3CC[C@@H]12,> 100,> 100,> 100,4.05,> 100,,
COC(=O)[C@]1(C)CCC[C@]2(C)c3ccc(C(C)C)c(N)c3CC[C@@H]12,6.1,25.4,24.1,,31.1,,
COC(=O)[C@]1(C)CCC[C@]2(C)c3ccc(C(C)C)c(NC(=O)Cn4cc(-c5ccccc5)nn4)c3CC[C@@H]12,4.8,3.4,3,5.2,3.7,,
COC(=O)[C@]1(C)CCC[C@]2(C)c3ccc(C(C)C)c(NC(=O)Cn4cc(-c5ccc(F)cc5)nn4)c3CC[C@@H]12,1.8,2.6,1,5.31,1.9,,
COC(=O)[C@]1(C)CCC[C@]2(C)c3ccc(C(C)C)c(NC(=O)Cn4cc(-c5ccc(OC(F)(F)F)cc5)nn4)c3CC[C@@H]12,20.3,12.1,23.4,6.17,9.2,,
COC(=O)[C@]1(C)CCC[C@]2(C)c3ccc(C(C)C)c(NC(=O)Cn4cc(-c5ccc(OC)cc5)nn4)c3CC[C@@H]12,1.4,1.9,1.8,5.28,1.4,>50,Dose-dependent effect
